{"source": "patent US20200038314A1", "about": "“PROCESS FOR PREVENTING OR SLOWING THE APPEARANCE OF UNATTRACTIVE SIGNS, GENERATED BY POLLUTANTS PRESENT IN THE ATMOSPHERE, ON THE SKIN, THE SCALP, THE HAIR OR THE MUCOUS MEMBRANES” (SOCIETE D'EXPLOITATION DE PRODUITS POUR LES INDUSTRIES …, priority 2016, published 2020)", "type_in_all_cases": "cell-based", "key": {"Human keratinocytes [1]": {"system": "Human keratinocytes", "test": "protein assay by the BCA method on cadmium-exposed keratinocyte culture", "details": "product 24 h then cadmium 35 μM 24 h, sulforaphane at 1 μM, Extract A at 0.5%", "description": "(§1) Principle of the evaluation: evaluation of the effects of an exposure to cadmium on a keratinocyte culture.\n(§2) Protocol: Human keratinocytes are cultured in a 96-well culture plate. After a few days of culture, the products evaluated, namely the Extract A at 0.5% by weight and sulforaphane (a positive reference known to those skilled in the art), are applied in the culture medium. At the end of incubation for 24 hours, the cells are exposed to a solution of cadmium at 35 μM for 24 hours, then 24 hours later, the following various evaluations are carried out: • evaluation of the cell viability by means of a DNA assay by the Hoechst method • evaluation of the cell metabolism by means of a protein assay by the BCA method; • evaluation of the inflammatory component by means of an assay for the cytokines IL-1a and IL-8."}, "Human keratinocytes [2]": {"system": "Human keratinocytes", "test": "DNA assay by the Hoechst method on cadmium-exposed keratinocyte culture", "details": "product 24 h then cadmium 35 μM 24 h, sulforaphane at 1 μM, Extract A at 0.5%", "description": "as §1, §2"}, "cytokine IL-1α": {"system": "cytokine IL-1α", "test": "assay for the cytokine IL-1α in cadmium-exposed keratinocyte culture", "details": "human keratinocytes, product 24 h then cadmium 35 μM 24 h; sulforaphane at 1 μM, Extract A at 0.5%", "description": "as §1, §2"}, "cytokine IL-8": {"system": "cytokine IL-8", "test": "assay for the cytokine IL-8 in cadmium-exposed keratinocyte culture", "details": "human keratinocytes, product 24 h then cadmium 35 μM 24 h; sulforaphane at 1 μM, Extract A at 0.5%", "description": "as §1, §2"}}}
{"compound": "C[S+]([O-])CCCCN=C=S", "note": "(stereo not shown) [sulforaphane]", "values": [{"measurement": "Mean values of the expressed proteins", "setting": "Human keratinocytes [1]", "result": 156.7, "unit": "µg/mL"}, {"measurement": "Mean values of the expressed DNA", "setting": "Human keratinocytes [2]", "result": 6.7, "unit": "µg/mL"}, {"measurement": "Mean values of IL-1α expressed", "setting": "cytokine IL-1α", "result": "0.8238 pg/μg of proteins"}, {"measurement": "Mean values of IL-8 expressed", "setting": "cytokine IL-8", "result": "3.7081 pg/μg of proteins"}]}
